Data taken from US12600709B2, “Nonpeptide somatostatin type 5 receptor agonists and uses thereof” (Crinetics Pharmaceuticals, Inc., priority 2019, dated 2026).
Where two headings read alike, the source gives them in different places.

Target: T1, human somatostatin receptor subtype 5 (Homo sapiens, UniProt P35346)
T1 construct: expressed in transfected cells
Assay: cAMP assay for SST5R (inhibition of cAMP in CHO-K1 cells)
Assay type: cell-based
Conditions: for EC50: inhibition of cAMP via human SST5 receptor, read-out: SST5 potency
From the text: General overview: All five SSTR subtypes are Gi coupled G-protein coupled receptors (GPCRs) that lead to decreases in intracellular cyclic AMP (cAMP) when activated by an agonist. Therefore, measurement of intracellular cAMP levels can be used to assess whether compounds of the invention are agonists of SSTR subtypes (John Kelly, Troy Stevens, W. Joseph Thompson, and Roland Seifert, Current Protocols in Pharmacology, 2005, 2.2.1-2.2). One example of an intracellular cAMP assay is described below.
cAMP Assay Protocol for SST5R:
Four days prior to the assay, 2,000 Chinese hamster ovary cells (CHO-K1, ATCC #CCL-61) stably expressing the human somatostatin receptor subtype 5 are plated in each well of a 96-well tissue culture-treated plate in Ham's F12 growth media (ThermoFisher #10-080-CM) supplemented with 10% donor bovine serum (Gemini Bio-Products #100-506), 100 U/mL penicillin; 100 µg/mL streptomycin; 2 mM L-glutamine (Gemini Bio-Products #400-110) and 0.25 mg/mL G418 Sulfate (GoldBio #108321-42-2). The cells are cultured at 37° C., 5% CO2 and 95% humidity. On the day of the assay, the media is aspirated and the cells are treated with 50 μL of 1.6 μM NKH477 (Sigma #N3290) plus various dilutions of compounds of the invention in assay buffer [1× Hank's Balanced Salt Solution (ThermoFisher #SH3058802), 0.5 mM HEPES pH 7.4, 0.1% bovine serum albumin, 0.2 mM 3-Isobutyl-1-methylxanthine (IBMX, VWR #200002-790)]. The cells are incubated for 20 minutes at 37° C. […] The cells are treated with 50 μL of lysis buffer (HRTF cAMP kit, Cisbio) for 30 minutes and then the lysate is diluted to 250 μL with assay buffer. The lysate is transferred to 384-well plates and cAMP detection and visualization antibodies are added and incubated for 1-24 hours at room temperature. The time-resolved fluorescent signal is read with a Tecan M1000Pro multiplate reader. The intracellular cAMP concentrations are calculated by regression to a standard curve and are plotted vs. the concentration of the compounds of the invention and the EC50 of the compounds are calculated using standard methods. All data manipulations are in GraphPad Prism v6 or v7.

T1 sequence (P35346 whole entry): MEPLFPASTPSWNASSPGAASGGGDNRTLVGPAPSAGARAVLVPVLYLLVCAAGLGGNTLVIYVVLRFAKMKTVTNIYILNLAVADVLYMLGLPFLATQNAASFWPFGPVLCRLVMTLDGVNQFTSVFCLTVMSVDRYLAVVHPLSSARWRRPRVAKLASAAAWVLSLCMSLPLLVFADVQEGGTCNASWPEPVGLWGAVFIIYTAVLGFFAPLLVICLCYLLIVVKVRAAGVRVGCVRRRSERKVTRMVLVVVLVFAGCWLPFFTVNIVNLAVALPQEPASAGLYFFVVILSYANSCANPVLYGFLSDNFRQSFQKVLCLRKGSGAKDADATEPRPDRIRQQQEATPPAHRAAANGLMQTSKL

EC50 (Table A) [nM] | Fold selectivity for SST5 vs SST2 (Table B, class symbols, SST5 receptor over SST2 receptor) | EC50 (Table B) [nM] | SMILES
100 to 1000 |  |  | C[C@]1(N)CCN(c2cc(C#N)ncc2C(=O)NC23CC(C2)C3)C1 [1-75, 4-[(3S)-3-amino-3-methylpyrrolidin-1-yl]-N-{bicyclo[1.1.1]pentan-1-yl}-6-cyanopyridine-3-carboxamide]
10 to 100 |  |  | Cc1ncc(C(=O)NC(CO)C2CC2)c(N2CC[C@](C)(N)C2)c1-c1cc(F)cc(F)c1 (stereo partly drawn) [1-224, 4-[(3S)-3-amino-3-methylpyrrolidin-1-yl]-N-(1-cyclopropyl-2-hydroxyethyl)-5-(3,5-difluorophenyl)-6-methylpyridine-3-carboxamide]
10 to 100 |  |  | Cc1cccc2[nH]c(-c3cncc(C(=O)N4CCCC4)c3N3CC[C@](C)(N)C3)nc12 [2-2, (3S)-3-methyl-1-[3-(4-methyl-1H-1,3-benzodiazol-2-yl)-5-(pyrrolidine-1-carbonyl)pyridin-4-yl]pyrrolidin-3-amine]
10 to 100 |  |  | Cc1cc(F)cc(-c2cncc(C(=O)NC3C4CC5CC(C4)CC3C5)c2N2CC[C@](C)(N)C2)c1 (stereo partly drawn) [1-18, N-(adamantan-2-yl)-4-[(3S)-3-amino-3-methylpyrrolidin-1-yl]-5-(3-fluoro-5-methylphenyl)pyridine-3-carboxamide]
< 10 |  |  | C[C@]1(N)CCN(c2c(C(=O)NCC3CCC3)cncc2-c2cc(F)cc(F)c2)C1 [1-33, 4-[(3S)-3-amino-3-methylpyrrolidin-1-yl]-N-(cyclobutylmethyl)-5-(3,5-difluorophenyl)pyridine-3-carboxamide]
< 10 |  |  | C[C@H](NC(=O)c1cncc(-c2cccc(OC(F)F)c2)c1N1CC[C@](C)(N)C1)C1CC1 [1-149, 4-[(3S)-3-amino-3-methylpyrrolidin-1-yl]-N-[(1S)-1-cyclopropylethyl]-5-[3-(difluoromethoxy)phenyl]pyridine-3-carboxamide]
< 10 |  |  | N[C@H]1CCN(c2c(C(=O)NC3CCC(F)(F)CC3)cnc(OCCCC(=O)O)c2-c2cc(F)cc(F)c2)C1 [1-205, 4-({4-[(3S)-3-aminopyrrolidin-1-yl]-5-[(4,4-difluorocyclohexyl)carbamoyl]-3-(3,5-difluorophenyl)pyridin-2-yl}oxy)butanoic acid]
< 10 | +++ (+++=>500) | < 10 | C[C@H](NC(=O)c1cnc(C(F)(F)F)c(-c2ccc(F)c(F)c2)c1N1CC[C@](C)(N)C1)C1CC1 [1-209, 4-[(3S)-3-amino-3-methylpyrrolidin-1-yl]-N-[(1S)-1-cyclopropylethyl]-5-(3,4-difluorophenyl)-6-(trifluoromethyl)pyridine-3-carboxamide]
10 to 100 |  |  | COc1ncc(C(=O)N[C@@H](C)C(F)(F)F)c(N2CC[C@](C)(N)C2)c1-c1cnc(C)nc1 [1-185, 4-[(3S)-3-amino-3-methylpyrrolidin-1-yl]-6-methoxy-5-(2-methylpyrimidin-5-yl)-N-[(2S)-1,1,1-trifluoropropan-2-yl]pyridine-3-carboxamide]
< 10 |  |  | N#Cc1ncc(C(=O)NC23CC(C2)C3)c(N2CC[C@H](N)C2)c1-c1cccc(Cl)c1 [1-84, 4-[(3S)-3-aminopyrrolidin-1-yl]-N-{bicyclo[1.1.1]pentan-1-yl}-5-(3-chlorophenyl)-6-cyanopyridine-3-carboxamide]
< 10 |  |  | COc1ncc(C(=O)N[C@@H](C)C2CC2)c(N2CC[C@H](N)C2)c1-c1cc(F)cc(F)c1 [1-152, 4-[(3S)-3-aminopyrrolidin-1-yl]-N-[(1S)-1-cyclopropylethyl]-5-(3,5-difluorophenyl)-6-methoxypyridine-3-carboxamide]
< 10 |  |  | C[C@H](NC(=O)c1cncc(-c2cc(F)cc(OC(F)F)c2)c1N1CC[C@](C)(N)C1)C1CC1 [1-143, 4-[(3S)-3-amino-3-methylpyrrolidin-1-yl]-N-[(1S)-1-cyclopropylethyl]-5-[3-(difluoromethoxy)-5-fluorophenyl]pyridine-3-carboxamide]
< 10 |  |  | Cc1ncc(C(=O)N[C@@H](C)C(F)(F)F)c(N2CC[C@](C)(N)C2)c1-c1cc(F)cc(F)c1 [1-147, 4-[(3S)-3-amino-3-methylpyrrolidin-1-yl]-5-(3,5-difluorophenyl)-6-methyl-N-[(2S)-1,1,1-trifluoropropan-2-yl]pyridine-3-carboxamide]
> 1000 |  |  | C[C@H](NC(=O)c1ncc(C(N)=O)c(-c2cc(F)cc(F)c2)c1N1CC[C@](C)(N)C1)C1CC1 [4-5, 3-[(3S)-3-amino-3-methylpyrrolidin-1-yl]-N2-[(1S)-1-cyclopropylethyl]-4-(3,5-difluorophenyl)pyridine-2,5-dicarboxamide]
10 to 100 |  |  | COC(=O)c1cnc(C(=O)N[C@@H](C)C2CC2)c(N2CC[C@](C)(N)C2)c1-c1cc(F)cc(F)c1 [4-4, methyl 5-[(3S)-3-amino-3-methylpyrrolidin-1-yl]-6-{[(1S)-1-cyclopropylethyl]carbamoyl}-4-(3,5-difluorophenyl)pyridine-3-carboxylate]
< 10 |  |  | Cc1ncc(C(=O)NC2CC(F)(F)C2)c(N2CC[C@](C)(N)C2)c1-c1cc(F)cc(F)c1 [1-146, 4-[(3S)-3-amino-3-methylpyrrolidin-1-yl]-N-(3,3-difluorocyclobutyl)-5-(3,5-difluorophenyl)-6-methylpyridine-3-carboxamide]
< 10 |  |  | C[C@H](NC(=O)c1cncc(-c2cncc(F)c2)c1N1CC[C@](C)(N)C1)C1CC1 [1-142, 4-[(3S)-3-amino-3-methylpyrrolidin-1-yl]-N-[(1S)-1-cyclopropylethyl]-5′-fluoro-[3,3′-bipyridine]-5-carboxamide]
< 10 |  |  | Cc1cccc2[nH]c(-c3cncc(C(=O)N4CCCC4(C)C)c3N3CC[C@](C)(N)C3)nc12 [2-20, (3S)-1-[3-(2,2-dimethylpyrrolidine-1-carbonyl)-5-(4-methyl-1H-1,3-benzodiazol-2-yl)pyridin-4-yl]-3-methylpyrrolidin-3-amine]
< 10 |  |  | Cc1ncc(C(=O)N[C@@H](C)c2ccccn2)c(N2CC[C@](C)(N)C2)c1-c1cc(F)cc(Cl)c1 [1-243, 4-[(3S)-3-amino-3-methylpyrrolidin-1-yl]-5-(3-chloro-5-fluorophenyl)-6-methyl-N-[(1S)-1-(pyridin-2-yl)ethyl]pyridine-3-carboxamide]
10 to 100 |  |  | Cn1cc(CNC(=O)c2cnc(C#N)c(-c3cc(F)cc(F)c3)c2N2CC[C@](C)(N)C2)cn1 [1-107, 4-[(3S)-3-amino-3-methylpyrrolidin-1-yl]-6-cyano-5-(3,5-difluorophenyl)-N-[(1-methyl-1H-pyrazol-4-yl)methyl]pyridine-3-carboxamide]
10 to 100 |  |  | CCN(C)C(=O)c1cncc(-c2nc3c(C)cccc3[nH]2)c1N1CC[C@](C)(N)C1 [2-3, 4-[(3S)-3-amino-3-methylpyrrolidin-1-yl]-N-ethyl-N-methyl-5-(4-methyl-1H-1,3-benzodiazol-2-yl)pyridine-3-carboxamide]
< 10 |  |  | CC(F)(F)CNC(=O)c1cncc(-c2cc(F)cc(F)c2)c1N1CC[C@](C)(N)C1 [1-62, 4-[(3S)-3-amino-3-methylpyrrolidin-1-yl]-5-(3,5-difluorophenyl)-N-(2,2-difluoropropyl)pyridine-3-carboxamide]
< 10 |  |  | COc1ncc(C(=O)N[C@H]2CCC(F)(F)C2)c(N2CC[C@](C)(N)C2)c1-c1cc(F)cc(F)c1 [1-145, 4-[(3S)-3-amino-3-methylpyrrolidin-1-yl]-N-[(1S)-3,3-difluorocyclopentyl]-5-(3,5-difluorophenyl)-6-methoxypyridine-3-carboxamide]
10 to 100 |  |  | Cc1ncc(C(=O)NCC2(O)CCCC2)c(N2CC[C@](C)(N)C2)c1-c1cc(F)cc(F)c1 [1-223, 4-[(3S)-3-amino-3-methylpyrrolidin-1-yl]-5-(3,5-difluorophenyl)-N-[(1-hydroxycyclopentyl)methyl]-6-methylpyridine-3-carboxamide]
10 to 100 |  |  | Cc1cccc2[nH]c(-c3cncc(C(=O)N4C[C@@H](C)O[C@@H](C)C4)c3N3CC[C@](C)(N)C3)nc12 [2-28, (3S)-1-{3-[(2R,6S)-2,6-dimethylmorpholine-4-carbonyl]-5-(4-methyl-1H-1,3-benzodiazol-2-yl)pyridin-4-yl}-3-methylpyrrolidin-3-amine]
< 10 |  |  | N[C@H]1CCN(c2c(C(=O)NC3CCC(F)(F)CC3)cnc(OCC(=O)O)c2-c2cc(F)cc(F)c2)C1 [1-203, 2-({4-[(3S)-3-aminopyrrolidin-1-yl]-5-[(4,4-difluorocyclohexyl)carbamoyl]-3-(3,5-difluorophenyl)pyridin-2-yl}oxy)acetic acid]
